One data set has as its system CHLA-258. Kind of data set: Hits validation, dose-response cell proliferation (CellTiter-Glo). The class given is cell-based. To be noted: 12-point dose-response 50 μmol/L to 1 nmol/L, mean ± SD. As for the experimental part: (§1) For hits validation and combination study, cells were harvested and aliquoted into 384-well plates at concentrations of 750–1,500 cells per well in a total of 20 μl/well using a Matrix Wellmate (Thermo Scientific). Five μl of culture media containing either vehicles or drug were added to each well the next day (drug concentrations range from 1 nmol/L to 50 μmol/L). For combination study, selected drugs were archived in robotically accessible plates, to which media was added in preparation for addition to master plates by a Nimbus 96 liquid-dispensing workstation (Hamilton). Liquid transfers to dilution and assay plates were handled using the same workstation. Each 384-well master plate contained four 9 by 9 dose-matrix blocks, with eight serial two-fold dilutions (concentrations range from 7.8 nmol/L to 1 μmol/L). Additional wells were reserved for untreated, and vehicle-treated control wells. Cell proliferation was evaluated using Cell-Titer Glo® reagents (Promega). IC50 values were determined for each drug using SigmaPlot (Systat Software). The combination index values were calculated using SigmaPlot (Systat Software) and CompuSyn.
In general terms: In ATP-based viability assays light output follows the ATP content of the culture.

The next data set deals with Hs 863.T. The data set is described as above. The class given is cell-based. The following applies: control cell line, 12-point dose-response, mean ± SD. Here is the method: as §1
The next data set concerns TC-71. The data set is described as above. The class given is cell-based. The following applies: TC-71; 12-point dose-response 50 μmol/L to 1 nmol/L, mean ± SD. As for the experimental part: as §1
Another data set relates to Hs 822.T. The description is as above. The class given is cell-based. The following applies: control cell line, 12-point dose-response, mean ± SD. As for the experimental part: as §1
Another data set concerns SK-ES-1. Described as above. The class given is cell-based. The following applies: Homo sapiens, SK-ES1; 12-point dose-response 50 μmol/L to 1 nmol/L, mean ± SD. Here is the method:
as §1

Another data set concerns RD-ES. Described as above. The class given is cell-based. The following applies: RD-ES; 12-point dose-response 50 μmol/L to 1 nmol/L, mean ± SD. As for the experimental part:
as §1

In a further data set the test system is A673. The description is as above. The class given is cell-based. To be noted: Homo sapiens, A673; 12-point dose-response 50 μmol/L to 1 nmol/L, mean ± SD. Here is the method: as §1
The test system of a further data set is COG-E-352. The data set is described as above. The following applies: 12-point dose-response 50 μmol/L to 1 nmol/L, mean ± SD. The class given is cell-based. Here is the method:
as §1

The test system of the next data set is Hs 919.T. Described as above. The class given is cell-based. To be noted: control cell line, 12-point dose-response, mean ± SD. As for the experimental part: These drugs were chosen based on their known mechanisms and safety profiles. We also tested the synergy between these drug hits (Supplementary Figures S6–S11). […] We evaluated the anti-proliferation effect in combination treatments using the EWS and control cell lines.
as §1

The conditions of data set [1]: 24-month study in rats; auranofin 1.0 or 2.5 mg/kg/day orally; gold sodium thiomalate 2 or 6 mg/kg twice weekly; cited from earlier work.

SMILES strings stand for the structures.

Consider `CC(=O)[C@H]1CC[C@H]2[C@@H]3CCC4=CC(=O)CC[C@]4(C)[C@H]3CC[C@]12C` [Progesterone], for which the IC50 is 11500 ± 5310 nM in the data set on CHLA-258; more than 50000 nM in the data set with Hs 863.T.; more than 50000 nM in the data set on TC-71; more than 50000 nM in the data set with Hs 822.T.; more than 50000 nM in the data set with SK-ES-1; more than 50000 nM in the data set with RD-ES. In addition, the IC50 was more than 50000 nM in the data set on A673, 24900 ± 5850 nM in the data set with COG-E-352 and more than 50000 nM in the data set with Hs 919.T..

For the compound `COc1ccc(C[C@H](N)C(=O)N[C@H]2[C@@H](O)[C@H](n3cnc4c(N(C)C)ncnc43)O[C@@H]2CO)cc1` [Puromycin], the IC50 turned out to be 60 ± 20 nM in the data set on CHLA-258; 1020 ± 260 nM in the data set on Hs 863.T.; 80 ± 50 nM in the data set on TC-71; 550 ± 130 nM with Hs 822.T.; 350 ± 100 nM in the data set on SK-ES-1; 350 ± 30 nM in the data set on RD-ES. The IC50 stood at 250 ± 10 nM in the data set with A673, 50 ± 10 nM in the data set on COG-E-352 and 890 ± 30 nM in the data set on Hs 919.T..

In the case of `C[n+]1cc2c3c(ccc2c2ccc4cc5c(cc4c21)OCO5)OCO3` [Sanguinarine], the IC50 turned out to be 950 ± 310 nM in the data set with CHLA-258; 1250 ± 140 nM in the data set with Hs 863.T.; 200 ± 80 nM in the data set on TC-71; 1550 ± 260 nM with Hs 822.T.; 1870 ± 510 nM with SK-ES-1; 1500 ± 120 nM in the data set with RD-ES. Also, the 50% inhibitory concentration (IC50) in the data set with A673 turned out to be 750 ± 140 nM; in the data set with COG-E-352, 1050 ± 180 nM; in the data set with Hs 919.T. it was 1440 ± 320 nM.

In the case of `CCC(C)(C)C(=O)O[C@H]1C[C@@H](C)C=C2C=C[C@H](C)[C@H](CC[C@@H]3C[C@@H](O)CC(=O)O3)[C@H]21` [Simvastatin], the IC50 turned out to be 250 ± 130 nM in the data set with CHLA-258; 4100 ± 560 nM with Hs 863.T.; 4330 ± 3860 nM with TC-71; 2080 ± 840 nM in the data set with Hs 822.T.; 3860 ± 890 nM with SK-ES-1; 3250 ± 140 nM in the data set on RD-ES. Besides, the IC50 in the data set with A673 amounted to 580 ± 50 nM; in the data set on COG-E-352, 10500 ± 1700 nM; in the data set with Hs 919.T., 2880 ± 580 nM.

On to `CC1=C(/C=C/C(C)=C/C=C/C(C)=C/C(=O)O)C(C)(C)CCC1` [Tretinoin], for which the IC50 in the data set with CHLA-258 is 4950 ± 3820 nM; in the data set with Hs 863.T. it was more than 50000 nM; in the data set on TC-71 it was more than 50000 nM; in the data set on Hs 822.T., more than 50000 nM; in the data set on SK-ES-1, more than 50000 nM; with RD-ES it was more than 50000 nM. Moreover, the results for the concentration for half-maximal inhibition (IC50) with A673, in the data set on COG-E-352 and with Hs 919.T. were more than 50000 nM, 35500 ± 6280 nM and more than 50000 nM, respectively.

Regarding `CN1CCN(CCCN2c3ccccc3Sc3ccc(C(F)(F)F)cc32)CC1` [Trifluoperazine], the IC50 was determined as 13600 ± 4800 nM in the data set with CHLA-258; 9840 ± 2280 nM in the data set on Hs 863.T.; 16400 ± 3460 nM with TC-71; 10600 ± 2450 nM with Hs 822.T.; 16700 ± 3140 nM in the data set with SK-ES-1; 18200 ± 2540 nM in the data set on RD-ES. Moreover, the results for the IC50 with A673, in the data set with COG-E-352 and with Hs 919.T. were 15600 ± 3550 nM, 12100 ± 1580 nM and 16800 ± 4200 nM, respectively.

As for `CC[C@]1(O)C[C@@H]2CN(CCc3c([nH]c4ccccc34)[C@@](C(=O)OC)(c3cc4c(cc3OC)N(C)[C@H]3[C@@](O)(C(N)=O)[C@H](O)[C@]5(CC)C=CCN6CC[C@]43[C@@H]65)C2)C1` [Vindesine], the IC50 with CHLA-258 is less than 3 nM; with Hs 863.T., 280 ± 10 nM; with TC-71 it was less than 3 nM; in the data set with Hs 822.T. it was 250 ± 10 nM; with SK-ES-1 it was less than 3 nM; with RD-ES, less than 3 nM. Further, the IC50 was less than 3 nM in the data set on A673, less than 3 nM in the data set on COG-E-352 and 4580 ± 450 nM with Hs 919.T..

`O=C([O-])CC([S-])C(=O)[O-].[Au+].[Na+].[Na+]` (stereo not shown) [gold sodium thiomalate]: the “frequency of renal tubular cell karyomegaly and cytomegaly and renal adenoma” value in data set [1] is “significant incr ease”.

A word on the IC50: it is the concentration that inhibits the measured activity by half.

The record behind these values is PMC5354814, “In silico and in vitro drug screening identifies new therapeutic approaches for Ewing sarcoma” (Oncotarget, 2016).
